# Source: PubChem BioAssay AID330 (DTP/NCI, 2004)
# Several values for one entry are separate records, joined by “and”; a condition that tells them apart may be missing. Identical values can stand only once. Toxic doses and inconclusive results are not listed.
# System: P388 leukemia ip, CD2F1 mice, survival T/C
# Experiment: NCI In Vivo Anticancer Drug Screen. Data for tumor model P388 Leukemia (intraperitoneal) in CD2F1 (CDF1) mice
# Conditions: endpoint: median survival time, higher = longer survival
# Procedure, shortened: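 Mice carrying the transplanted tumor received test compound or vehicle. Survival was recorded in each group, and the value is the treated-group measurement divided by that of the vehicle-treated control group.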
# [1] = dose: 100.0 mg/kg/injection, schedule: Q01DX001 (ip), vehicle: Klucel (hydroxypropylcellulose) (HPC)
# [2] = dose: 200.0 mg/kg/injection, schedule: Q01DX001 (ip), vehicle: Klucel (hydroxypropylcellulose) (HPC)
# [3] = dose: 400.0 mg/kg/injection, schedule: Q01DX001 (ip), vehicle: Klucel (hydroxypropylcellulose) (HPC)
# [4] = dose: 25.0 mg/kg/injection, schedule: Q01DX009 (ip), vehicle: saline with Tween-80
# [5] = dose: 50.0 mg/kg/injection, schedule: Q01DX009 (ip), vehicle: saline with Tween-80
# [6] = dose: 50.0 mg/kg/injection, schedule: Q01DX005 (ip), vehicle: Klucel (hydroxypropylcellulose) (HPC)
# [7] = dose: 100.0 mg/kg/injection, schedule: Q01DX005 (ip), vehicle: Klucel (hydroxypropylcellulose) (HPC)
# [8] = dose: 200.0 mg/kg/injection, schedule: Q01DX005 (ip), vehicle: Klucel (hydroxypropylcellulose) (HPC)
# [9] = dose: 100.0 mg/kg/injection, schedule: Q01DX009 (ip), vehicle: saline with Tween-80
# [10] = dose: 200.0 mg/kg/injection, schedule: Q01DX009 (ip), vehicle: saline with Tween-80
# [11] = dose: 60.0 mg/kg/injection, schedule: Q01DX005 (ip), vehicle: saline with Tween-80
# [12] = dose: 120.0 mg/kg/injection, schedule: Q01DX005 (ip), vehicle: saline with Tween-80
# [13] = dose: 50.0 mg/kg/injection, schedule: Q04DX003 (ip), vehicle: saline with Tween-80
# [14] = dose: 100.0 mg/kg/injection, schedule: Q04DX003 (ip), vehicle: saline with Tween-80
# [15] = dose: 200.0 mg/kg/injection, schedule: Q04DX003 (ip), vehicle: saline with Tween-80
# [16] = dose: 50.0 mg/kg/injection, schedule: Q01DX009 (ip), vehicle: Klucel (hydroxypropylcellulose) (HPC)
# [17] = dose: 100.0 mg/kg/injection, schedule: Q01DX009 (ip), vehicle: Klucel (hydroxypropylcellulose) (HPC)
# [18] = dose: 200.0 mg/kg/injection, schedule: Q01DX009 (ip), vehicle: Klucel (hydroxypropylcellulose) (HPC)
# [19] = dose: 50.0 mg/kg/injection, schedule: Q01DX005 (ip), vehicle: saline with Tween-80
# [20] = dose: 100.0 mg/kg/injection, schedule: Q01DX005 (ip), vehicle: saline with Tween-80
# [21] = dose: 60.0 mg/kg/injection, schedule: Q01DX005 (ip), vehicle: saline
# [22] = dose: 120.0 mg/kg/injection, schedule: Q01DX005 (ip), vehicle: saline
# [23] = dose: 100.0 mg/kg/injection, schedule: Q04DX003 (ip), vehicle: saline
# [24] = dose: 200.0 mg/kg/injection, schedule: Q04DX003 (ip), vehicle: saline
# [25] = dose: 200.0 mg/kg/injection, schedule: Q01DX005 (ip), vehicle: saline with Tween-80
compound,measurement,setting,value
CCOC(CCl)(NC(C)=O)C(=O)OC (centres undefined),T/C,[1],104 % of control
same,T/C,[2],100 % of control
same,T/C,[3],106 % of control
CC(=O)OCC1OC(n2cnc3c(=S)nc(N)[nH]c32)C(OC(C)=O)C1OC(C)=O (centres undefined),T/C,"dose: 12.5 mg/kg/injection, schedule: Q04DX003 (ip), vehicle: saline with Tween-80",118 % of control
same,T/C,[4],122 % of control
same,T/C,[5],113 % of control
same,T/C,"dose: 300.0 mg/kg/injection, schedule: Q04DX003 (ip), vehicle: saline with Tween-80",100 % of control
CC1C(n2[nH]c(=O)n(C)c2=O)c2ccccc2-n2c(=O)n(C)c(=O)n21 (centres undefined),T/C,[6],96 % of control
same,T/C,[7],101 % of control
same,T/C,[8],103 % of control
CC1(C)CCCC2C1=NOC2O (centres undefined),T/C,"dose: 50.0 mg/kg/injection, schedule: Q01DX009 (ip), vehicle: saline",100 % of control
same,T/C,"dose: 100.0 mg/kg/injection, schedule: Q01DX009 (ip), vehicle: saline",96 % of control
same,T/C,"dose: 200.0 mg/kg/injection, schedule: Q01DX009 (ip), vehicle: saline",100 % of control
CC(C)(C)CC(C)(C)c1ccc(OCc2ccc(Cl)cc2)cc1,T/C,[5],100 % of control
same,T/C,[9],100 % of control
same,T/C,[10],98 % of control
S=C(SSC(=S)N1CCOCC1)N1CCOCC1,T/C,"dose: 15.0 mg/kg/injection, schedule: Q01DX005 (ip), vehicle: saline with Tween-80",97 % of control
same,T/C,"dose: 30.0 mg/kg/injection, schedule: Q01DX005 (ip), vehicle: saline with Tween-80",102 % of control
same,T/C,[11],102 % of control and 107 % of control
same,T/C,[12],104 % of control
C=C(C)CC1(CCCCCCCCCC)C(=O)NC(=O)NC1=O,T/C,[13],105 % of control
same,T/C,[14],102 % of control
same,T/C,[15],93 % of control
COc1ccc(C(c2c(O)cc(C)[nH]c2=O)c2c(O)cc(C)[nH]c2=O)cc1F,T/C,[5],97 % of control
same,T/C,[9],96 % of control
same,T/C,[10],95 % of control
CSc1cccc(NC(=S)NN/C(=N/S(=O)(=O)c2ccccc2)N2CCCC2)c1,T/C,[16],102 % of control
same,T/C,[17],101 % of control
same,T/C,[18],99 % of control
COc1nc(NC(C)C)nc(NC(C)C)n1,T/C,[13],87 % of control
same,T/C,[14],95 % of control
same,T/C,[15],104 % of control
O=CC1CCC(c2ccc3ccccc3c2)O1 (centres undefined),T/C,[11],106 % of control
same,T/C,[12],114 % of control
same,T/C,"dose: 240.0 mg/kg/injection, schedule: Q01DX005 (ip), vehicle: saline with Tween-80",114 % of control
Cc1ccc(NC(=O)Oc2cc(C)c(Cl)c(C)c2Cl)c([N+](=O)[O-])c1,T/C,[5],114 % of control
same,T/C,[9],107 % of control
C=CC(=O)OCCOCN(COCCOC(=O)C=C)c1nc(N(COCCOC(=O)C=C)COCCOC(=O)C=C)nc(N(COCCOC(=O)C=C)COCCOC(=O)C=C)n1,T/C,[19],99 % of control
same,T/C,[20],107 % of control
CC(=O)C(C)(NCc1ccccc1)c1ccccc1 (centres undefined),T/C,[16],101 % of control
same,T/C,[17],108 % of control
same,T/C,[18],108 % of control
same,T/C,"dose: 400.0 mg/kg/injection, schedule: Q01DX009 (ip), vehicle: Klucel (hydroxypropylcellulose) (HPC)",90 % of control
CC(=O)NC(CCCCN)C(=O)O (centres undefined),T/C,[6],103 % of control
same,T/C,[7],101 % of control
same,T/C,[8],102 % of control
N#CN=[N+]([O-])c1ccc(C(=O)O)cc1,T/C,"dose: 7.5 mg/kg/injection, schedule: Q04DX003 (ip), vehicle: Klucel (hydroxypropylcellulose) (HPC)",97 % of control
same,T/C,"dose: 7.5 mg/kg/injection, schedule: Q04DX003 (ip), vehicle: saline with Tween-80",111 % of control
same,T/C,"dose: 15.0 mg/kg/injection, schedule: Q04DX003 (ip), vehicle: Klucel (hydroxypropylcellulose) (HPC)",105 % of control
same,T/C,"dose: 15.0 mg/kg/injection, schedule: Q04DX003 (ip), vehicle: saline with Tween-80",112 % of control
same,T/C,"dose: 30.0 mg/kg/injection, schedule: Q04DX003 (ip), vehicle: saline with Tween-80",124 % of control
C[CH2][Sn]([CH2]C)([O]C(C)=O)[O][Sn]([CH2]C)([CH2]C)[O]C(C)=O,T/C,"dose: 6.25 mg/kg/injection, schedule: Q01DX009 (ip), vehicle: saline",155 % of control
CC(=O)N1CCN(C(C)=O)C2C1N(C(C)=O)CCN2C(C)=O (centres undefined),T/C,"dose: 50.0 mg/kg/injection, schedule: Q01DX005 (ip), vehicle: saline",117 % of control
same,T/C,[21],105 % of control
same,T/C,"dose: 100.0 mg/kg/injection, schedule: Q01DX005 (ip), vehicle: saline",105 % of control
same,T/C,[22],107 % of control
same,T/C,"dose: 200.0 mg/kg/injection, schedule: Q01DX005 (ip), vehicle: saline",115 % of control
same,T/C,"dose: 240.0 mg/kg/injection, schedule: Q01DX005 (ip), vehicle: saline",100 % of control
CSc1ncnc2c1c1c(N)ncnc1n2C1OC(CO)C(O)C1O (centres undefined),T/C,"dose: 25.0 mg/kg/injection, schedule: Q01DX005 (ip), vehicle: other",97 % of control
same,T/C,"dose: 50.0 mg/kg/injection, schedule: Q01DX005 (ip), vehicle: other",97 % of control
same,T/C,"dose: 100.0 mg/kg/injection, schedule: Q01DX005 (ip), vehicle: other",109 % of control
same,T/C,"dose: 200.0 mg/kg/injection, schedule: Q01DX005 (ip), vehicle: other",105 % of control
CC(C)c1oc(=O)cc2c1C(O)C1OC(=O)C3(C)C(O)C4OC4C2(C)C13 (centres undefined) (tested in a mixture with another compound),T/C,"dose: 15.0 mg/kg/injection, schedule: Q01DX009 (ip), vehicle: saline with Tween-80",113 % of control
same,T/C,"dose: 60.0 mg/kg/injection, schedule: Q01DX009 (ip), vehicle: saline with Tween-80",123 % of control
CC(=O)OCc1ccc(Cl)cc1,T/C,[5],99 % of control
same,T/C,"dose: 50.0 mg/kg/injection, schedule: Q04DX003 (ip), vehicle: saline",100 % of control
same,T/C,[9],99 % of control
same,T/C,[23],104 % of control
same,T/C,[10],114 % of control
same,T/C,[24],113 % of control
same,T/C,"dose: 400.0 mg/kg/injection, schedule: Q01DX009 (ip), vehicle: saline with Tween-80",123 % of control
NC(=NCc1ccncc1)N/N=C\c1ccnc2ccccc12,T/C,[21],107 % of control
same,T/C,[22],106 % of control
O=C1c2ccccc2C(=O)N1c1ccccc1,T/C,[1],99 % of control
same,T/C,[2],100 % of control
same,T/C,[3],100 % of control
CCN(CC)CCNc1ccc(COC(N)=O)c2sc3ccccc3c(=O)c12,T/C,[23],117 % of control
same,T/C,[24],122 % of control
CCSC(C(OC(C)=O)C(OC(C)=O)C(OC(C)=O)C(COC(C)=O)OC(C)=O)n1cnc2c(=S)nc[nH]c21 (centres undefined),T/C,[19],107 % of control
same,T/C,[25],87 % of control
O=C(O)c1cn(C2CCCCC2)c(=O)[nH]c1=O,T/C,[19],99 % of control
same,T/C,[20],92 % of control
same,T/C,[25],92 % of control
c1ccc2c[n+](CC[n+]3ccc4ccccc4c3)ccc2c1,T/C,[4],100 % of control
same,T/C,[5],118 % of control
CCCCCCCC/C=C\CCCCCCCC(=O)OCCCCCCCCCCCCCC,T/C,"dose: 12.5 mg/kg/injection, schedule: Q01DX001 (ip), vehicle: other",100 % of control
same,T/C,"dose: 25.0 mg/kg/injection, schedule: Q01DX001 (ip), vehicle: other",90 % of control
same,T/C,"dose: 50.0 mg/kg/injection, schedule: Q01DX001 (ip), vehicle: other",100 % of control
CN(C)Cc1cc(C(=O)c2ccccc2)c(O)cc1O,T/C,"dose: 25.0 mg/kg/injection, schedule: Q01DX009 (ip), vehicle: Klucel (hydroxypropylcellulose) (HPC)",103 % of control
same,T/C,[16],103 % of control
COc1ccc(S(=O)(=O)NN=C(C(=O)O)C(=O)O)cc1,T/C,"dose: 25.0 mg/kg/injection, schedule: Q01DX005 (ip), vehicle: saline with Tween-80",102 % of control
same,T/C,[19],102 % of control
same,T/C,[20],95 % of control
same,T/C,[25],109 % of control
